Measurements: article PMC8158687, “Xanthones Active against Multidrug Resistance and Virulence Mechanisms of Bacteria” (Antibiotics, 2021)

Columns and labels:
[1] = test system: SE03 (acrA gene-inactivated Salmonella enterica serovar Typhimurium SL1344); assay: Efflux pump inhibition assay (real-time ethidium bromide accumulation); type: cell-based; conditions: compound 50 µM, EB 1 µg/mL, minute 60
Method: (§1) Salmonella enterica serovar Typhimurium SE03, was used as a Gram-negative bacterium. This strain has a deletion of the acrA gene, which was predicted with the least affinity for the compounds. The aim of these studies was to perform a first screening of these compounds and their ability to modulate the efflux of EB. […] The relative fluorescence index (RFI) was calculated based on the means of relative fluorescence units, depicted in Table 2.
(§2) Compounds 1–20 were evaluated for their ability to inhibit efflux pumps in SE03 and S. aureus 272123 strains, through the real-time fluorimetry, monitoring the intracellular accumulation of EB, an efflux pump substrate. This was determined by the automated method using a CLARIOstar Plus plate reader (BMG Labtech, Ortenberg, Germany). Reserpine and CCCP were applied at 25 µM as positive controls, and the solvent DMSO was applied at 1% v/v. The bacterial strains were incubated in an appropriate culture media (TSB—S. aureus 272123; LB-B—SE03) at 37 °C until they reached an optical density (OD) between 0.4 and 0.6 at λ = 600 nm. The culture was centrifuged at 13,000× g for 3 min, and the pellet washed and resuspended with PBS. The suspension was centrifuged again in the same conditions and resuspended in PBS. The compounds were applied at 50 µM in a solution of a non-toxic concentration of EB (1 µg/mL) in PBS. Then, 50 µL of this solution were transferred into a 96-well black microtiter plate (Greiner Bio-One Hungary Kft, Mosonmagyaróvár, Fertősor, Hungary), and 50 µL of bacterial suspension (OD600 0.4–0.6) were added to each well. The plates were placed into the CLARIOstar plate reader, and the fluorescence was monitored at excitation and emission wavelengths of 530 nm and 600 nm every minute for one hour on a real-time basis. From the real-time data, the activity of the compounds, namely the RFI of the last time point (minute 60) of the EB accumulation assay, was calculated according to the following formula:(1) RFI=RFtreated−RFuntreated/RFuntreated where RFtreated is the relative fluorescence (RF) at the last time point of EB accumulation curve in the presence of the compound, and RFuntreated is the RF at the last time point of the EB accumulation curve of the untreated control, having only the solvent (DMSO) control. The accumulation curves were designed using Microsoft Excel®.

S. aureus 272123 [2] = assay: as above; type: cell-based, Staphylococcus aureus; conditions: compound 50 µM, EB 1 µg/mL, minute 60
Method: Compounds 1–20 were assessed for their capability of modulating ethidium bromide (EB) accumulation on two resistant strains. […] However, norA is a core gene of the S. aureus as a species, which means that the NorA pump occurs in all S. aureus strains.
as §1, §2

[3] = test system: Chromobacterium violaceum wild type 85 (wt85); assay: Quorum sensing inhibition assay (disk, pigment production); type: cell-based; conditions: read-out: Quorum Sensing Inhibition (mm) ± SD
Description: (§3) The sensor strain Chromobacterium violaceum CV026 and the acyl-homoserine lactones (AHLs) producer strain Sphingomonas paucimobilis Ezf 10-17 (EZF) were inoculated as parallel lines, and the AHL producers, Chromobacterium violaceum wild type 85 (wt85) and Serratia marcescens AS-1 were inoculated as a single line.
(§4) For the QS tests, all the bacteria used were Gram-negative. The bacteria used were Chromobacterium violaceum wild type 85 (wt85), characterized by the AHL signal molecule-mediated production of the purple violacein pigment, capable of endogenous QS-signal molecule production (N-hexanoyl-L-HSL), C. violaceum CV026 (CV026), a Tn5 transposase-mutant, AHL-signal molecule indicator strain (produces purple violacein pigment in the presence of AHL), which is incapable of endogenous QS-signal molecule-production, but useful in the detection of external stimuli, Sphingomonas paucimobilis Ezf 10-17 (EZF), AHL-producing-strain (used with C. violaceum CV026), and Serratia marcescens AS-1, characterized by the AHL signal molecule-mediated production of the orange–red pigment prodigiosin (2-methyl-3-pentyl-6-methoxyprodigiosin), capable of endogenous QS-signal molecule production (N-hexanoyl-L-HSL), were applied.
(§5) The QS inhibitory effect of the compounds was examined on the EZF and the sensor CV026 strains, on the wt85 strain, and on S. marcescens, for 4, 5, 11, 12, 16, 19, and 20. The method used was the parallel inoculation method, where pair combinations of the used sensor strain CV026 and the N-acyl-homoserine lactone (AHL)-producing strain EZF were inoculated directly onto the LB*-A agar surface in parallel, at an approximate distance of 5 mm from each other. S. marcescens AS-1 and wt85 were inoculated as a single line. Filter paper disks (7 mm in diameter) were placed on the center of the inoculated line(s) and impregnated with 8 µL of a solution of 10 mM of the compounds. […] The agar plates were incubated at room temperature (20 °C) for 24–48 h. The QS inhibition was accessed visually, through the inhibition of pigment production. The discolored, but intact, bacterial colonies were measured with a ruler.

Serratia marcescens AS-1 = assay: as above; type: cell-based; conditions: AS1, read-out: Quorum Sensing Inhibition (mm) ± SD
Description: as §3, §4, §5

S. aureus 272123 [4] = assay: Inhibition of biofilm formation (crystal violet); type: cell-based, Staphylococcus aureus; conditions: half the MIC, or 100 µM if MIC >100 µM, 48 h, 30 °C
Method: The biofilm inhibition, presented in percentages (%), was calculated based on the mean of absorbance units.
The bacterial strains used were the Gram-positive S. aureus ATCC 25923 and S. aureus 272123. The detection of the biofilm formation was possible with the use of the dye crystal violet (CV; 0.1% v/v). The initial inoculum was incubated in TSB overnight, and then diluted to an OD600 of 0.1. Then, the bacterial suspension was added to 96-well microtiter plates and the compounds were added at half the MIC. […] The final volume in each well was 200 µL. […] The plates were incubated at 30 °C for 48 h, with gentle stirring (100 rpm). After this incubation period, the TSB medium was discarded, and the plates were washed with tap water to remove unattached cells. Afterwards, 200 µL of a 0.1% v/v CV solution were added to the wells and incubated for 15 min at room temperature. Then, the CV solution was removed from the wells, and the plates were washed again with tap water, and 200 µL of a 70% ethanolic solution were added to the wells. The biofilm formation was determined by measuring the OD600 using a Multiscan EX ELISA plate reader (Thermo Labsystems, Cheshire, WA, USA). The anti-biofilm effect of the compounds was expressed as the percentage (%) of decrease in biofilm formation.

Cytotoxicity assay (MTT) = type: cell-based, mouse; conditions: mouse, NIH/3T3 mouse fibroblast cells, 24 h, MTT, read-out: Cytotoxicity IC50 (µM) ± SD
Method: In order to apply efflux pump inhibitors to treat patients, several issues should be addressed.
Mouse fibroblasts (NIH/3T3, ATCC CRL-1658TM) were cultivated in DMEM (Gibco 52100-039) and supplemented with 10% heat-inactivated fetal bovine serum (Biowest, VWR International Kft, Debrecen, Hungary), 2 mM of L-glutamine, 1 mM Na pyruvate, 100 U/L and 10 mg/L penicillin/streptomycin mixture (Sigma-Aldrich Chemie GmbH, Steinheim, Germany), respectively, and 0.1% nystatin (8.3 g/L in ethylene glycol). The adherent cells were detached using a combination of 0.25% Trypsin–Versene (EDTA) solution for 5 min at 37 °C. Before each cytotoxicity assay using this cell line, cells were seeded in untreated 96-well flat-bottom microtiter plates, following a 4-h incubation period in a humidified atmosphere (5% CO2, 95% air) at 37 °C [60].
The cytotoxicity of 4, 12, 16, 19, and 20 was assessed in NIH/3T3 cells. The compounds were added to the cells distributed into 96-well flat bottom microtiter plates at concentrations of […] and initially incubated for 24 h, after which a solution of MTT in PBS was added to each well and incubated for another 4 h. The concentrations used were the same as in the MIC assay. After this, 100 μL of SDS (10% in a 0.01 M HCl solution) were added to each well and incubated overnight at 37 °C. Doxorubicin was used as the positive control. Cell growth was determined in quadruplicate by measuring OD at λ = 540 nm (reference 630 nm) in a Multiscan EX ELISA reader (Thermo Labsystems, Cheshire, WA, USA). The percentage of inhibition of cell growth was determined according to the equation: (2) 100−(ODsample−ODmedium control/ODcell control−ODmedium control)×100

[5] = test system: EZF + CV026 (Sphingomonas paucimobilis Ezf 10-17 + Chromobacterium violaceum CV026); assay: Quorum sensing inhibition assay (parallel inoculation, pigment production); type: cell-based; conditions: read-out: Quorum Sensing Inhibition (mm) ± SD
Description: as §3, §4, §5

SMILES	RFI ± SD (relative fluorescence index) [1]	RFI ± SD (relative fluorescence index) (S. aureus 272123 [2])	zone of inhibition at 10000 µM [3]	zone of inhibition at 10000 µM (Serratia marcescens AS-1)	Inhibition of Biofilm Formation (%) ± SD (S. aureus 272123 [4])	IC50 at 24 h (Cytotoxicity assay (MTT))	zone of inhibition at 10000 µM [5]
COc1ccc2c(=O)c3c(C)cc(OC)c(OC)c3oc2c1 [Compound 10]	0.24 ± 0.05 ^10	0.18 ± 0.20 ^5	–	–	–	–	–
COc1cc(C=O)c2c(=O)c3ccccc3oc2c1OC [Compound 15]	0.13 ± 0.09 ^9	0.08 ± 0.07 ^4	–	–	–	–	–
COc1cc(C)c2c(=O)c3ccccc3oc2c1OC [Compound 8]	0.05 ± 0.11 ^9	0.15 ± 0.25 ^4	–	–	–	–	–
O=c1c2ccccc2oc2c(O)cccc12 [Compound 1]	−0.01 ± 0.05 ^6	−0.36 ± 0.03 ^1	–	–	–	–	–
Cc1cc(O)c(O)c2oc3cc(O)ccc3c(=O)c12 [Compound 7]	−0.87 ± 0.02 ^10	−0.92 ± 0.00 ^5	–	–	–	–	–
COc1cc(CN[C@H](C)c2ccc(Cl)cc2)c2c(=O)c3ccccc3oc2c1OC [Compound 20]	2.09 ± 0.05 ^11	1.08 ± 0.82 ^4	0 mm	0 mm	77.17 ± 4.45 ^4%	35.1 ± 4.86 µM	0 mm
COc1cc(CNCc2ccc(F)cc2)c2c(=O)c3ccccc3oc2c1OC [Compound 19]	2.86 ± 0.14 ^8	0.02 ± 0.02 ^3	0 mm	0 mm	65.03 ± 9.86 ^4%	> 100 µM	0 mm
COc1cc(C=O)c2c(=O)c3ccccc3oc2c1O [Compound 14]	0.02 ± 0.02 ^7	−0.28 ± 0.06 ^2	–	–	–	–	–
COc1ccc2c(=O)c3c(CBr)cc(OC)c(OC)c3oc2c1 [Compound 13]	1.16 ± 0.64 ^10	0.53 ± 0.20 ^5	–	–	–	–	–
